Experimental data as given in PMC4021065, “A novel, non-radioactive eukaryotic in vitro transcription assay for sensitive quantification of RNA polymerase II activity” (BMC Molecular Biology, 2014).
Read-outs that look alike come from different tables or passages of the source.

Tests used:
RNA polymerase II [1] = target: T1, RNA polymerase II (Homo sapiens, UniProt P24928); experiment: In vitro transcription (HeLaScribe nuclear extract) with primer extension and PCR gel detection; assay type: biochemical
T1 construct: a well-defined nuclear extract providing the RNA polymerase II and a basal set of transcription factors; purchased Promega; host or cells: HeLa cell nuclear extract (endogenous enzyme)
Experimental: Transcription reactions were set up as using the Promega HeLaScribe Nuclear Extract in vitro Transcription System were set up as described by the manufacturer with some modifications. The reaction volume was doubled to 50 μl. A master mix was prepared from a volume transcription buffer (20 mM HEPES, pH 7.9, 100 mM KCl, 0.2 mM EDTA, 0.5 mM DTT, 20% glycerol) corresponding to 22 μl minus the nuclear extract volume, MgCl2 to a final concentration of 3 mM, 40 Units RNase inhibitor, DNA template (1 μg pEGFP-N1 plasmid or 150 ng linear DNA fragment CMV-EGFP, respectively) and the nuclear extract following the manufacturer’s recipe. Aliquots of the master mix were transferred into reaction tubes containing different α-amanitin concentrations or water and incubated for 20 min at room temperature. Standard transcription reactions containing no α-amanitin were referred as ‘positive’, reactions containing α-amanitin or other inhibitors as ’inhibited’. A standard reaction containing no α-amanitin/inhibitors but also no NTPs was used as a ‘negative control transcription’. […]
The purified RNA was once more DNase-treated using the Epicentre BaselineZero DNase kit as recommended by the manufacturer, 8.8 μl of the RNA being digested in a final volume of 10 μl. […] After amplification, the products were analyzed by gel electrophoresis onto 1.5% agarose.

RNA polymerase II [2] = target: T1, RNA polymerase II; experiment: In vitro transcription with primer extension and qPCR (EGFP-LNA1 probe) detection, pEGFP-N1 / CMV-EGFP templates; assay type: biochemical
Experimental: Transcription reactions were set up as using the Promega HeLaScribe Nuclear Extract in vitro Transcription System were set up as described by the manufacturer with some modifications. The reaction volume was doubled to 50 μl. A master mix was prepared from a volume transcription buffer (20 mM HEPES, pH 7.9, 100 mM KCl, 0.2 mM EDTA, 0.5 mM DTT, 20% glycerol) corresponding to 22 μl minus the nuclear extract volume, MgCl2 to a final concentration of 3 mM, 40 Units RNase inhibitor, DNA template (1 μg pEGFP-N1 plasmid or 150 ng linear DNA fragment CMV-EGFP, respectively) and the nuclear extract following the manufacturer’s recipe. Aliquots of the master mix were transferred into reaction tubes containing different α-amanitin concentrations or water and incubated for 20 min at room temperature. Standard transcription reactions containing no α-amanitin were referred as ‘positive’, reactions containing α-amanitin or other inhibitors as ’inhibited’. A standard reaction containing no α-amanitin/inhibitors but also no NTPs was used as a ‘negative control transcription’. The reactions were started by the addition of the NTP mix to a final concentration of 400 μM each, except for the negative control where water was added. After incubating for 30 min at 30°C, the reactions were stopped by diluting with 400 μl of the RLT buffer from the Qiagen RNeasy Micro kit and stored at −80°C until proceeding with RNeasy cleanup. This was performed as recommended by the manufacturer, including on-column DNase treatment but without the addition of carrier RNA. The RNA was eluted using 15 μl water and stored at −80°C.
The purified RNA was once more DNase-treated using the Epicentre BaselineZero DNase kit as recommended by the manufacturer, 8.8 μl of the RNA being digested in a final volume of 10 μl. As a second negative control, 50 ng of the linear DNA fragment CMV-EGFP were directly DNase-digested and further processed as the RNA samples (‘DNase control’). For reverse transcription with the Qiagen Sensiscript RT kit, 2 μl of the digestion reaction and 1 μM EGFPrev1 primer (Table 1) were used in a final reaction volume of 20 μl. After reaction, 1 μl of the reverse transcription mix was transferred to PCR tubes containing 24 μl PCR mix aliquots. The standard PCR amplification was performed using the Epicentre Failsafe PCR system with the Mix A and the EGFPrev1 and EGFPfrw1 (Table 1) primer mix. Positive PCR control reactions contained 50 ng pEGFP-N1 plasmid; negative PCR controls contained no DNA. After amplification, the products were analyzed by gel electrophoresis onto 1.5% agarose.
For quantitation using SYBR detection, the Qiagen QuantiFast SYBR green qPCR kit was used. 1 μl of the reverse transcription mix was amplified in 25 μl reaction mix containing 500 nM of each EGFP-rev1 and EGFP-frw1 primer. For quantitation using the sequence-specific LNA probe EGFP-LNA1 at 250 nM, same primer set as well as an alternative primer set (EGFPfrw2 and EGFPrew2, Table 1) at 500 nM each and Sigma Jumpstart Taq ReadyMix for qPCR were used. 2 μl of the reverse transcription reaction were diluted into qPCR reactions with a final volume of 20 μl and qPCR performed in a Bio-Rad DNAEngine lightcycler. A qPCR standard curve was prepared from the CMV-EGFP DNA fragment and used for RNA copy number calculations. The amount of RNA in the inhibited probes was related to the RNA amount detected for the positive transcription reaction.

RNA polymerase II [3] = target: T1, RNA polymerase II; assay type: biochemical; settings: for IC50: qPCR, read-out: IC50 (RNA synthesis)
RNA polymerase II [4] = target: T1, RNA polymerase II; experiment: biochemical; settings: for IC50: QuantiGene, read-out: IC50 (RNA synthesis)
RNA polymerase II [5] = settings: cited from earlier work
[6] = 200 nM, template HS-DNA_mut (TATA box mutated)

## CC[C@H](C)[C@@H]1NC(=O)CNC(=O)[C@@H]2Cc3c([nH]c4cc(O)ccc34)[S@+]([O-])C[C@H](NC(=O)CNC1=O)C(=O)N[C@@H](CC(N)=O)C(=O)N1C[C@H](O)C[C@H]1C(=O)N[C@@H]([C@@H](C)[C@@H](O)CO)C(=O)N2 [α-amanitin]
RNA polymerase II [1]; linear CMV-EGFP template, 400, 100 and 20 μM, Figure 2B
  inhibitory effect on transcription (PCR product on gel): gradually increasing inhibitory effects
RNA polymerase II [1]; pEGFP-N1 plasmid template, 100 μM, Figure 2A
  amount of PCR product after transcription: clearly diminished amount of PCR product
RNA polymerase II [2]; linear CMV-EGFP template, 2 μM, uninhibited C(T) 16.1, Figure 3B
  qPCR C(T) value of inhibited transcription: 24.5
RNA polymerase II [2]; linear CMV-EGFP template, 20 μM, uninhibited C(T) 16.1, Figure 3B
  qPCR C(T) value of inhibited transcription: 28.1
RNA polymerase II [2]; linear CMV-EGFP template, 50 μM, uninhibited C(T) 16.1, Figure 3B
  qPCR C(T) value of inhibited transcription: 37.0
RNA polymerase II [2]; linear CMV-EGFP template, 100 μM, uninhibited C(T) 16.1, Figure 3B, C
  qPCR C(T) value of inhibited transcription: 27.9
RNA polymerase II [2]; pEGFP-N1 plasmid template, 100 μM, uninhibited C(T) 17.6 / 18.0, Figure 3A, C
  qPCR C(T) value of inhibited transcription: 21.7
RNA polymerase II [3]; 10 min, HS-DNA_long vs 30 min, standard template
  inhibitory effect, short incubation vs standard (times lower): ca. 10 ×
RNA polymerase II [4]; 200 nM, both templates (standard HS-DNA and TATA box mutant)
  inhibition of transcription efficacy: 88 ± 1%
RNA polymerase II [4]; [6]
  % RNA synthesis (compared to respective positive control): 12% ± 1%
  Signal (RLU average): 130255 RLU
RNA polymerase II [4]; 200 nM, template HS-DNA_std
  % RNA synthesis (compared to respective positive control): 12% ± 1%
  Signal (RLU average): 161585 RLU
RNA polymerase II [4]; Bead-HS-DNA template, Figure 5C
  IC50: 5700 nM
RNA polymerase II [4]; HS-DNA_long template, 10 min at 30°C, Figure 6C
  IC50: 54 nM
RNA polymerase II [4]; standard HS-DNA template, 30 min at 30°C, Figure 6A
  IC50: 4 nM

## CN1CC[C@H](c2c(O)cc(O)c3c(=O)cc(-c4ccccc4Cl)oc23)[C@H](O)C1 [flavopiridol]
RNA polymerase II [3]; HS-DNA_long template, 10 min at 30°C, second set of reactions
  IC50: 940 nM
RNA polymerase II [3]; standard HS-DNA template, 30 min at 30°C, first set of reactions
  IC50: > 125000 nM

## CCC(C)C1NC(=O)CNC(=O)C2Cc3c([nH]c4cc(OC)ccc34)[S+]([O-])CC(NC(=O)CNC1=O)C(=O)NC(CC(N)=O)C(=O)N1CC(O)CC1C(=O)NC(C(C)C(C)O)C(=O)N2 (stereo not shown) [6′–O-methyl-γ-amanitin]
RNA polymerase II [5]
  potency as RNA polymerase II inhibitor relative to α-amanitin (less potent): about two-fold
